Test results reported in US8552176B2 (priority 2010, dated 2013).

Legend:
[1] = test system: A549; assay: cells; assay type: cell-based, human; settings: read-out: GI50 A549 lung (+p53)
[2] = test system: H1299; assay: cells; assay type: cell-based, human
[3] = test system: HCT-15; assay: cells; assay type: cell-based, human
[4] = test system: Hep3b; assay: cells; assay type: cell-based, human; settings: read-out: GI50 Hep3b liver
[5] = test system: MCF7; assay: cells; assay type: cell-based, human; settings: read-out: GI50 MCF7 breast
[6] = test system: DU-145; assay: cells; assay type: cell-based, human; settings: read-out: GI50 DU-145 prostate
[7] = test system: SKOV3; assay: cells; assay type: cell-based, human; settings: read-out: GI50 SKOV3 ovary
[8] = test system: CCRF-CEM; assay: NCI 60 Human Tumor Cell Line Anticancer Screen; assay type: cell-based; settings: Leukemia
[9] = test system: HL-60 (TB); assay type: cell-based, human
[10] = test system: K-562; assay: NCI 60 Human Tumor Cell Line Anticancer Screen; assay type: cell-based; settings: K-562, Leukemia
[11] = test system: MOLT-4; assay: NCI 60 Human Tumor Cell Line Anticancer Screen; assay type: cell-based; settings: MOLT-4, Leukemia
[12] = test system: RPMI-8226; assay: NCI 60 Human Tumor Cell Line Anticancer Screen; assay type: cell-based; settings: RPMI-8226, Leukemia
[13] = test system: SR; assay: NCI 60 Human Tumor Cell Line Anticancer Screen; assay type: cell-based; settings: Leukemia
[14] = test system: A549/ATCC; assay: NCI 60 Human Tumor Cell Line Anticancer Screen; assay type: cell-based; settings: Non-small cell lung
[15] = test system: EKVX; assay: NCI 60 Human Tumor Cell Line Anticancer Screen; assay type: cell-based; settings: Non-small cell lung
[16] = test system: HOP-62; assay: NCI 60 Human Tumor Cell Line Anticancer Screen; assay type: cell-based; settings: HOP-62, Non-small cell lung
[17] = test system: HOP-92; assay: NCI 60 Human Tumor Cell Line Anticancer Screen; assay type: cell-based; settings: HOP-92, Non-small cell lung
[18] = test system: NCI-H460; assay: NCI 60 Human Tumor Cell Line Anticancer Screen; assay type: cell-based; settings: NCI-H460, Non-small cell lung
[19] = test system: NCI-H522; assay: NCI 60 Human Tumor Cell Line Anticancer Screen; assay type: cell-based; settings: NCI-H522, Non-small cell lung
[20] = test system: HCC-2998; assay: NCI 60 Human Tumor Cell Line Anticancer Screen; assay type: cell-based; settings: HCC-2998, Colon
[21] = test system: HCT-116; assay: NCI 60 Human Tumor Cell Line Anticancer Screen; assay type: cell-based; settings: HCT-116, Colon
[22] = test system: HCT-15; assay: NCI 60 Human Tumor Cell Line Anticancer Screen; assay type: cell-based; settings: HCT-15, Colon
[23] = test system: SW-620; assay: NCI 60 Human Tumor Cell Line Anticancer Screen; assay type: cell-based; settings: SW-620, Colon
[24] = test system: SF-268; assay: NCI 60 Human Tumor Cell Line Anticancer Screen; assay type: cell-based; settings: SF-268, CNS
[25] = test system: SF-295; assay: NCI 60 Human Tumor Cell Line Anticancer Screen; assay type: cell-based; settings: SF-295, CNS
[26] = test system: SF-539; assay: NCI 60 Human Tumor Cell Line Anticancer Screen; assay type: cell-based; settings: SF-539, CNS
[27] = test system: SNB-75; assay: NCI 60 Human Tumor Cell Line Anticancer Screen; assay type: cell-based; settings: SNB-75, CNS
[28] = test system: PC-3; assay: NCI 60 Human Tumor Cell Line Anticancer Screen; assay type: cell-based; settings: PC-3, Prostate
[29] = test system: DU-145; assay: NCI 60 Human Tumor Cell Line Anticancer Screen; assay type: cell-based; settings: DU-145, Prostate
[30] = test system: MALME-3M; assay: NCI 60 Human Tumor Cell Line Anticancer Screen; assay type: cell-based; settings: Melanoma
[31] = test system: MDA-MB-435; assay: NCI 60 Human Tumor Cell Line Anticancer Screen; assay type: cell-based; settings: MDA-MB-435, Melanoma
[32] = test system: IGROV1; assay: NCI 60 Human Tumor Cell Line Anticancer Screen; assay type: cell-based; settings: IGROV1, Ovary
[33] = test system: OVCAR-3; assay: NCI 60 Human Tumor Cell Line Anticancer Screen; assay type: cell-based; settings: OVCAR-3, Ovary
[34] = test system: OVCAR-8; assay: NCI 60 Human Tumor Cell Line Anticancer Screen; assay type: cell-based; settings: OVCAR-8, Ovary
[35] = test system: NCI/ADR-RES; assay: NCI 60 Human Tumor Cell Line Anticancer Screen; assay type: cell-based; settings: Ovary
[36] = test system: SKOV3; assay: NCI 60 Human Tumor Cell Line Anticancer Screen; assay type: cell-based; settings: SKOV3, Ovary
[37] = test system: 786-0; assay: NCI 60 Human Tumor Cell Line Anticancer Screen; assay type: cell-based; settings: 786-0, Renal
[38] = test system: CAKI-1; assay: NCI 60 Human Tumor Cell Line Anticancer Screen; assay type: cell-based; settings: CAKI-1, Renal
[39] = test system: SN12C; assay: NCI 60 Human Tumor Cell Line Anticancer Screen; assay type: cell-based; settings: Renal
[40] = test system: UO-31; assay: NCI 60 Human Tumor Cell Line Anticancer Screen; assay type: cell-based; settings: UO-31, Renal

CON(CCCCc1ccc(N(CCCl)CCCl)cc1)C1OCC(O)C1O (centres unmarked) [Compound 60]
GI50 [1]: 1100 ± 100 nM | improved activity over the parent drug [2]: 13 fold | GI50 ([2]; read-out: GI50 H1299 lung (−p53)): 370 ± 40 nM | improved activity over the parent drug [3]: 15 fold | GI50 ([3]; read-out: GI50 HCT-15 colorectal): 530 ± 50 nM | GI50 [4]: 670 ± 60 nM | GI50 [5]: 1800 ± 100 nM | GI50 [6]: 1800 ± 100 nM | GI50 [7]: 1500 ± 100 nM | GI50 [8]: 2360 nM | Inhibition at 10 μM ([8]; 10 μM): 21.19% | GI50 [9]: 1880 nM | Inhibition at 10 μM [9]: 68.31% | Inhibition at 10 μM [10]: 88.55% | GI50 [11]: 1220 nM | Inhibition at 10 μM ([11]; 10 μM): 64.41% | Inhibition at 10 μM [12]: 15.94% | GI50 [13]: 386 nM | Inhibition at 10 μM ([13]; 10 μM): 48.67% | GI50 [14]: 12.2 µM | Inhibition at 10 μM ([14]; 10 μM): 69.72% | GI50 [15]: 37.9 µM | Inhibition at 10 μM ([15]; 10 μM): 91.24% | GI50 [16]: 8.28 µM | Inhibition at 10 μM ([16]; 10 μM): 73.20% | GI50 [17]: 4.03 µM | Inhibition at 10 μM ([17]; 10 μM): 58.81% | GI50 [18]: 3.76 µM | Inhibition at 10 μM ([18]; 10 μM): 35.80% | GI50 [19]: 10 µM | Inhibition at 10 μM ([19]; 10 μM): 52.38% | Inhibition at 10 μM [20]: 73.29% | GI50 [21]: 14.5 µM | Inhibition at 10 μM ([21]; 10 μM): 69.37% | GI50 [22]: 19.7 µM | Inhibition at 10 μM ([22]; 10 μM): 77.10% | GI50 [23]: 12.4 µM | Inhibition at 10 μM ([23]; 10 μM): 68.08% | GI50 [24]: 5.75 µM | Inhibition at 10 μM ([24]; 10 μM): 67.83% | GI50 [25]: 6.47 µM | Inhibition at 10 μM ([25]; 10 μM): 56.59% | GI50 [26]: 8.8 µM | Inhibition at 10 μM ([26]; 10 μM): 51.79% | GI50 [27]: 19.5 µM | Inhibition at 10 μM ([27]; 10 μM): 66.74% | GI50 [28]: 11.7 µM | Inhibition at 10 μM ([28]; 10 μM): 72.52% | GI50 [29]: 4.84 µM | Inhibition at 10 μM ([29]; 10 μM): 56.78% | GI50 [30]: 20.2 µM | Inhibition at 10 μM ([30]; 10 μM): 69.73% | GI50 [31]: 21.1 µM | Inhibition at 10 μM ([31]; 10 μM): 83.03% | GI50 [32]: 1210 nM | GI50 [33]: 15.3 µM | Inhibition at 10 μM ([33]; 10 μM): 85.34% | GI50 [34]: 9.13 µM | Inhibition at 10 μM ([34]; 10 μM): 68.13% | GI50 [35]: 4.61 µM | Inhibition at 10 μM ([35]; 10 μM): 61.54% | GI50 [36]: 17.9 µM | Inhibition at 10 μM ([36]; 10 μM): 72.76% | GI50 [37]: 6.16 µM | Inhibition at 10 μM ([37]; 10 μM): 67.90% | GI50 [38]: 11.5 µM | Inhibition at 10 μM ([38]; 10 μM): 13.59% | GI50 [39]: 7.06 µM | Inhibition at 10 μM ([39]; 10 μM): 54.23% | GI50 [40]: 856 nM | Inhibition at 10 μM ([40]; 10 μM): 54.43%
